One experiment deals with Colo-205 (Colon cancer). Nature of the experiment: MTT assay, Colo-205. The settings on record: MTT, 48 hrs; for IC50: Homo sapiens, COLO 205, read-out: Colo-205 IC50. The experiment is classed as cell-based. On the procedure:
(§1) A431 (Skin cancer), Colo-205 (Colon cancer), A549 (Lung cancer) cell lines were obtained from National Center for Cell science (NCCS), Pune, India. DMEM (Dulbeccos Modified Eagles Medium), MTT [3-(4,5-dimethylthiazol-2-yl)-2,5-diphenyl tetrazolium bromide], Trypsin, EDTA were purchased from Sigma Chemicals Co (St. Louis, Mo.), Fetal bovine serum were purchased from Arrow labs, 96 well flat bottom tissue culture plates were purchased from Tarson.
(§2) A431, Colo-205, A549 cell lines were grown as adherent cells in DMEM media supplemented with 10% fetal bovine serum, 100 μg/ml penicillin, 200 μg/ml streptomycin, 2 mM L-glutamine, and culture was maintained in a humidified atmosphere with 5% CO2. Stock solution of 10 mg/ml was prepared for test molecules in DMSO. From the stock, various dilutions were made with sterile water to get required concentration. A431, Colo-205, A549 cell lines were seeded at a density of 1×10^4 cells (cell number was determined by Trypan blue exclusion dye method) per each well in 100 μl of DMEM supplemented with 10% FBS. 12 hrs after seeding, above media was replaced with fresh DMEM supplemented with 10% FBS. Then, 10 μl sample from above stock solutions were added to each well in triplicates which gives final concentration of 100, 50, 25, 10 μg/well. The above cells were incubated for 48 hrs at 37° C. with 5% CO2. After 48 hrs incubation the above media was replaced with 100 μl of fresh DMEM with out FBS and to this 10 μl of MTT (5 mg dissolved in 1 ml of PBS) was added and incubated for 3 hrs at 37° C. with 5% CO2. After 3 hrs of incubation, the above media was removed with multi channel pipette, then 200 μl of DMSO was added to each well and incubated at 37° C. for 15 min. Finally, the plate was read at 570 nm using spectrophotometer (Spectra Max, Molecular devices).
A general note: Tetrazolium assays rely on reduction of a dye to a coloured formazan, in cell work by metabolically active cells.

The test system of experiment [1] is crude intestinal α-glucosidase. Put plainly: In-vitro mammalian (rat intestinal) α-glucosidase inhibition assay. It counts as biochemical. The settings on record: for Mammalian α Glucosidase Inhibition (Mean ± S.E): highest concentration 5 mg/ml; for IC50: mammalian α-glucosidase, dose response study. An outline of the steps:
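p-Nitrophenol release (405 nm) from 5 mM p-nitrophenyl glucoside, read 5 min after substrate addition following 5 min sample–enzyme preincubation in pH 6.8 phosphate buffer. Enzymes: baker's yeast α-glucosidase (0.76 U/ml) and sonicated rat intestinal acetone powder supernatant. Blank-corrected inhibition vs DMSO; IC50 by log regression.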

The next experiment concerns Wistar rats. Nature of the experiment: Carrageenan induced paw edema model. It counts as in vivo, rat. The settings on record: for % Inhibition / Percentage Swelling (50 mg/kg) / Percentage Swelling (100 mg/kg) / Percentage Swelling (200 mg/kg): dose response study, n=6; for inhibition in vivo at 100 mg/kg / change in vivo at 100 mg/kg: Rattus norvegicus; for inhibition in vivo at 100 mg/kg: read-out: % Inhibition (paw volume); for change in vivo at 100 mg/kg: read-out: % Increase in Paw Volume.

Experiment [2] relates to A431 (Skin cancer) cell lines. Put plainly: MTT assay, A431. The experiment is classed as cell-based. The settings on record: MTT, 48 hrs; for IC50: Homo sapiens, A-431, read-out: A431 cell lines IC50. On the procedure:
as §1, §2

Setting [3] is: test compounds 100 mg/kg oral, Indomethacin 10 mg/kg oral, 3 hrs after Carrageenan.

Molecules are shown by their SMILES. Converted amounts (≈) assume the structure as drawn. “And” between values parts separate entries of the source, which are not always exact repeats. Identical values can stand only once.

Regarding `Nc1c2c(nc3sc4c(c13)CCC4)CCCC2` [BN-14, 2,3,6,7,8,9-Hexahydro-1H-cyclopenta[4,5]thieno[2,3-b]quinolin-10-amine], the IC50 (as a rule, the point on the concentration scale where inhibition reaches its midpoint) with Colo-205 (Colon cancer) turned out to be 223 µg/mL (≈ 913 µM); in experiment [1], 1.56 mg/mL (≈ 6380 µM); in experiment [2], 99.3 µg/mL (≈ 406 µM). For the same compound, the “Mammalian α-glucosidase inhibitory activity (in words)” value in experiment [1] was “significant inhibitory activity”. Moreover, the “Mammalian α-glucosidase inhibition (Mean ± S.E)” value stood at 7.79 ± 3.11% in experiment [1] (0.039063 mg/ml); 20.75 ± 2.19% in experiment [1] (0.078125 mg/ml); 26.76 ± 1.37% in experiment [1] (0.15625 mg/ml); 34.49 ± 1.19% in experiment [1] (0.3125 mg/ml); 40.62 ± 0.63% in experiment [1] (0.625 mg/ml); 51.56 ± 0.74% in experiment [1] (1.25 mg/ml). Besides, the “Mammalian α-glucosidase inhibition (Mean ± S.E)” value in experiment [1] (2.5 mg/ml) stood at 54.74 ± 1.01%; in experiment [1] (5 mg/ml) it was 58.37 ± 2.20%. The “Mammalian α Glucosidase Inhibition (Mean ± S.E)” value in experiment [1] was determined as 58.37%. The % Inhibition (in general, the change of the read-out against control, counted positive when it falls) in the experiment with Wistar rats (50 mg/kg oral) was 19.80 ± 2.24%; in the experiment with Wistar rats (100 mg/kg oral), 33.47 ± 6.70%; in the experiment on Wistar rats (200 mg/kg oral) it was 56.45% and 56.45 ± 3.12%. For the same compound, in the experiment with Wistar rats (50 mg/kg oral), the “Percentage Swelling (50 mg/kg)” value came out at 72.34 ± 1.73 %. Moreover, in the experiment on Wistar rats (100 mg/kg oral), the “Percentage Swelling (100 mg/kg)” value is listed as 71.30 ± 3.72 %. The “Percentage Swelling (200 mg/kg)” value in the experiment with Wistar rats (200 mg/kg oral) is reported as 41.78 ± 3.31 %. Further, the inhibition in vivo at 100 mg/kg in the experiment with Wistar rats (setting [3]) was determined as 33.5 ± 8.35%.
`CC1CCc2c(nc3sc4c(c3c2N)CCC4)C1` (centres unmarked) [BN-15, 7-Methyl-2,3,6,7,8,9-hexahydro-1H-cyclopenta[4,5]thieno[2,3-b]quinolin-10-amine]: the “Colo-205 IC50” value in the experiment with Colo-205 (Colon cancer) is recorded as “No activity”. Moreover, in experiment [1], the “Mammalian α-glucosidase inhibitory activity (in words)” value is on record as “significant inhibitory activity”. Also, the “Mammalian α-glucosidase inhibition (Mean ± S.E)” value was determined as 11.85 ± 3.45% in experiment [1] (0.039063 mg/ml); 31.57 ± 2.74% in experiment [1] (0.078125 mg/ml); 40.72 ± 2.26% in experiment [1] (0.15625 mg/ml); 52.37 ± 1.64% in experiment [1] (0.3125 mg/ml); 61.83 ± 0.26% in experiment [1] (0.625 mg/ml); 78.49 ± 1.88% in experiment [1] (1.25 mg/ml). Besides, the “Mammalian α-glucosidase inhibition (Mean ± S.E)” value in experiment [1] (2.5 mg/ml) was determined as 83.34 ± 3.13%; in experiment [1] (5 mg/ml), 88.87 ± 1.35%. Further, in experiment [1], the “Mammalian α Glucosidase Inhibition (Mean ± S.E)” value is 88.87%. For the same compound, the values for the IC50 in experiment [1] and in experiment [2] were 0.299 mg/mL (≈ 1160 µM) and 40.7 µg/mL (≈ 158 µM), respectively. The change in vivo at 100 mg/kg with Wistar rats (setting [3]) worked out at 86.5 ± 17.1%. The inhibition in vivo at 100 mg/kg with Wistar rats (setting [3]) was found to be 23.5 ± 8.98%.
With `Nc1c2c(nc3sc4c(c13)CCC4)CCCCC2` [BN-16, 1,2,3,6,7,8,9,10-Octahydrocyclohepta[b]cyclopenta[4,5]thieno[3,2-e]pyridine-11-amine], in the experiment on Colo-205 (Colon cancer), the half-maximal inhibitory concentration (IC50) came to 123 µg/mL (≈ 476 µM). Also, the “Mammalian α Glucosidase Inhibition (Mean ± S.E)” value in experiment [1] was determined as 4.46 ± 1.77%. In the experiment on Wistar rats (50 mg/kg oral), the “% Inhibition” value was 20.47 ± 1.61% and the “Percentage Swelling (50 mg/kg)” value is recorded as 73.18 ± 2.41 %. In the experiment with Wistar rats (100 mg/kg oral), the “% Inhibition” value is 44.90 ± 5.86% and the “Percentage Swelling (100 mg/kg)” value is on record as 61.09 ± 5.86 %. In the experiment on Wistar rats (200 mg/kg oral), the “% Inhibition” value is given as 56.0 ± 2.87% and the “Percentage Swelling (200 mg/kg)” value amounted to 45.60 ± 5.30 %. In addition, the “% Inhibition” value in the experiment with Wistar rats (200 mg/kg oral, listed as B-16) is on record as 57.53%. Besides, in the experiment on Wistar rats (setting [3]), the change in vivo at 100 mg/kg was determined as 61.1 ± 19.2% and the inhibition in vivo at 100 mg/kg stood at 44.9 ± 5.86%. Also, in experiment [2], the IC50 was 63 µg/mL (≈ 244 µM).
As for `Nc1c2c(nc3sc4c(c13)CCC4)CCCCCC2` [BN-17, 2,3,6,7,8,9,10,11-Octahydro-1H-cycloocta [b]cyclopenta[4,5]thieno[3,2-e]pyridin-12-amine], the “Colo-205 IC50” value in the experiment on Colo-205 (Colon cancer) turned out to be 61.65 µg/mL. For the same compound, the “Mammalian α-glucosidase inhibitory activity (in words)” value in experiment [1] was “significant inhibitory activity”. In addition, the “Mammalian α-glucosidase inhibition (Mean ± S.E)” value in experiment [1] (0.039063 mg/ml) turned out to be 10.04 ± 4.42%; in experiment [1] (0.078125 mg/ml), 26.77 ± 1.83%; in experiment [1] (0.15625 mg/ml), 34.53 ± 2.61%; in experiment [1] (0.3125 mg/ml) it was 44.41 ± 1.52%; in experiment [1] (0.625 mg/ml), 52.44 ± 1.56%; in experiment [1] (1.25 mg/ml) it was 66.57 ± 1.11%. The “Mammalian α-glucosidase inhibition (Mean ± S.E)” value in experiment [1] (2.5 mg/ml) is on record as 70.69 ± 2.75%; in experiment [1] (5 mg/ml), 75.39 ± 13.76%. For the same compound, in experiment [1], the “Mammalian α Glucosidase Inhibition (Mean ± S.E)” value is 75.39%. Moreover, the IC50 in experiment [1] is 0.528 mg/mL (≈ 1940 µM). Also, the “% Increase in Paw Volume” value in the experiment with Wistar rats (setting [3]) is 76.85 ± 6.45%. Besides, the “% Inhibition (paw volume)” value in the experiment on Wistar rats (setting [3]) stood at 6.87 ± 4.76%. In addition, in experiment [2], the “A431 cell lines IC50” value came to 32.35 µg/mL.
Regarding `Nc1c2c(nc3sc4c(c13)CCCCC4)CCC2` [BN-18, 1,2,3,6,7,8,9,10-Octahydrocyclohepta[4,5] thieno[2,3-b]cyclopenta [e]pyridin-11-amine], the half-maximal inhibitory concentration (IC50) in the experiment with Colo-205 (Colon cancer) came out at 47.8 µg/mL (≈ 185 µM). In experiment [1], the “Mammalian α-glucosidase inhibitory activity (in words)” value is reported as “moderate inhibitory activity” and the “Mammalian α Glucosidase Inhibition (Mean ± S.E)” value stood at 46.22 ± 4.15%. Besides, in the experiment on Wistar rats (setting [3]), the change in vivo at 100 mg/kg came out at 62.8 ± 2% and the inhibition in vivo at 100 mg/kg was 17.4 ± 0.27%. In addition, the half-inhibitory concentration (IC50) in experiment [2] was determined as 53.7 µg/mL (≈ 208 µM).

The values are drawn from US20110269790A1, “NOVEL THIENOPYRIDINES AS PHARMACOLOGICALLY ACTIVE AGENTS” (priority 2009, published 2011).
